From patent US6657106B2, “Removal of metals from contaminated substrates by plants” (ISIS Innovation Limited, priority 1995, dated 2003)
“Also recorded” adds a separate entry of the source.

Tests used:
A. montanum [1] = assay: Effect of foliar spraying with histidine on nickel tolerance; format: in vivo, Alyssum montanum; settings: 20 mM histidine daily foliar spray with 0.01% Tween 20; 0.03 mM NiSO4 in root medium, 23 d; compared with 20 mM glutamine
Method: 6. […]. Thus, chelation of nickel by histidine is important both in the detoxification of the metal ion within the plant and in facilitating the transport of the metal from root to shoot, a characteristic of metal-hyperaccumulator plants generally (Baker, A. J. M. and Brooks, R. R. (1989) loc. cit.).
METHODS. Plants were germinated for 7 d on floating nets in 1 mM Ca(NO3)2 solution, subsequently transferred to 1.2-1 culture vessels (10 plants per vessel), and supplied with modified 0.1-strength Hoagland solution containing 0.1 mM KH2PO4, 0.5 mM KNO3, 0.4 mM Ca(NO3)2, 0.2 mM MgSO4, 0.01 mM FeNaEDTA, 0.01 mM H3BO3, 2 μM MnSO4, 0.2 μM ZnSO4, 0.2 μM CuSO4, 0.1 μM Na2MoO4 and 0.02 mM NaCl, supplemented with 0, 0.01, 0.03, 0.1, 0.3, 1, or 3 mM NiSO4. Plants were grown in a glasshouse at night temperatures between 14° C. and 18° C. and day temperatures between 22° C. and 34° C. with supplementary lighting provided by sodium-vapour lamps to give a 16-h photoperiod. Culture solutions were continuously aerated and exchanged every 7 d; solution pH remained in the range 5.6 to 6.0. Plants were harvested after 18 d, rinsed with distilled water, dried at 80° C. for 48 h and weighed. […].
FIG. 4. […] Values of biomass production and root elongation are for nickel-treated plants expressed as percentages of the respective controls grown in the absence of nickel. […]

A. montanum [2] = assay: Effect of histidine in the root medium on xylem-sap exudation and nickel flux of excised roots; format: in vivo, Alyssum montanum; settings: 0.3 mM NiSO4 with or without 0.3 mM histidine in root medium, exudate collected over 12 h
From the text: 6. […] That is, the application of relatively high concentrations of histidine exogenously is able to increase markedly both the nickel tolerance of an otherwise non-tolerant species of Alyssum (A. montanum) and to cause these plants to translocate nickel out of the root system at much higher rates. Thus, chelation of nickel by histidine is important both in the detoxification of the metal ion within the plant and in facilitating the transport of the metal from root to shoot, a characteristic of metal-hyperaccumulator plants generally (Baker, A. J. M. and Brooks, R. R. (1989) loc. cit.).
FIG. 4. Effect of exogenously applied histidine on nickel tolerance and xylem nickel translocation. a, Effect of foliar spraying with histidine (compared with glutamine) on nickel tolerance of A. montanum, assayed as the effect on whole-plant dry biomass production and root elongation. After germination for 7 d, plants were grown in modified Hoagland solution (FIG. 1) containing either 0 or 0.03 mM NiSO4 for 23 d and were sprayed daily with a solution of either 20 mM glutamine (Ni) or 20 mM histidine (His+Ni), both containing 0.01% (v/v) of the non-ionic detergent Tween 20. Values of biomass production and root elongation are for nickel-treated plants expressed as percentages of the respective controls grown in the absence of nickel. Each bar represents the mean of 9 plants+1 SE. […]

A. lesbiacum = assay: as above; format: in vivo, Alyssum lesbiacum; settings: 0.3 mM NiSO4 with or without 0.3 mM histidine in root medium, 12 h
From the text: FIG. 4. Effect of exogenously applied histidine on nickel tolerance and xylem nickel translocation. a, Effect of foliar spraying with histidine (compared with glutamine) on nickel tolerance of A. montanum, assayed as the effect on whole-plant dry biomass production and root elongation. […]. Values of biomass production and root elongation are for nickel-treated plants expressed as percentages of the respective controls grown in the absence of nickel. […]. Roots of 4-week-old plants were excised and exposed to a root medium of modified Hoagland solution supplemented with either 0.3 mM MgSO4 (controls) or 0.3 mM NiSO4, with or without 0.3 mM added histidine.

A. montanum [3] = settings: histidine supplied to the root medium of excised roots; earlier symposium report; cited from earlier work
A. montanum [4] = settings: histidine supplied to the xylem of excised shoots; cited from earlier work

N[C@@H](Cc1c[nH]cn1)C(=O)O [histidine]
root elongation (inhibitory effect of nickel) (A. montanum [1]): halving of the inhibitory effect; also recorded: significantly greater
whole-plant dry biomass production (A. montanum [1]): more than twofold increase; also recorded: significantly greater
flux of nickel through the xylem (A. montanum [2]): greatly increased; also recorded: significantly greater
rate of xylem-sap exudation (A. montanum [2]): moderated the adverse effect of nickel; also recorded: significantly greater
nickel flux (A. lesbiacum): no significant differences
xylem exudation rate (A. lesbiacum): no significant differences
toxicity of nickel (exudation of sap, flux of nickel through the root system) (A. montanum [3]): apparently reduced the toxicity of nickel
toxicity of nickel (A. montanum [4]): apparently reduced the toxicity of nickel
